The values below come from patent publication US11510920B2, “Compositions and methods for treating EZH2-mediated cancer” (Icahn School of Medicine at Mount Sinai, priority 2016, dated 2022).

Assay type in all cases: cell-based
Assay [1] has as its system MDA-MB-468 cells. In words: Proliferation assay (IncuCyte cell confluence), MDA-MB-468. Particulars: Homo sapiens, concentration for 50% of maximal inhibition of cell proliferation. The method, then: (§1) 1-3×10^3 cells were seeded in 96-well plates in duplicates and treated at the indicated compound concentrations. Cells were monitored using the IncuCyte® live cell imaging system (Essen BioScience™, Ann Arbor, Mich.) which was placed in a cell culture incubator operated at 37° C. and 5% CO2. Cell confluence was determined using calculations derived from phase-contrast images. The concentration for 50% of maximal inhibition of cell proliferation (GI50) values were determined by fitting to a standard four-parameter logistic using GraphPad Prism® v5. Graphs depicting the GI50s of select EZH2 degraders/disruptors described here for various cancer cell lines are shown in FIGS. 4-49.

Assay [2] relates to HCC1170 cells. In words: Proliferation assay (IncuCyte cell confluence), HCC1170. Particulars: concentration for 50% of maximal inhibition of cell proliferation. The procedure: as §1
In assay [3] the test system is MCF-7 cells. In words: Proliferation assay (IncuCyte cell confluence), MCF-7. Particulars: Homo sapiens, MCF7, concentration for 50% of maximal inhibition of cell proliferation. The procedure:
as §1

For assay [4], the system named is HCC1187 cells. In words: Proliferation assay (IncuCyte cell confluence), HCC1187. Particulars: Homo sapiens, concentration for 50% of maximal inhibition of cell proliferation. The procedure: as §1
In assay [5] the test system is HCC1954 cells. In words: Proliferation assay (IncuCyte cell confluence), HCC1954. Conditions: Homo sapiens, concentration for 50% of maximal inhibition of cell proliferation. The procedure:
as §1

Assay [6] relates to BT549 cells. Kind of assay: Proliferation assay (IncuCyte cell confluence), BT549. Conditions: Homo sapiens, BT-549, concentration for 50% of maximal inhibition of cell proliferation. The procedure:
as §1

Turning to `CCCc1cc(C)[nH]c(=O)c1CNC(=O)c1cc(-c2ccc(N3CCN(CCNC(=O)CC45CC6CC(CC(C6)C4)C5)CC3)nc2)cc2c1cnn2C(C)C` [AM16-10A, 6-(6-(4-(2-(2-((3r,5r,7r)-adamantan-1-yl)acetamido)ethyl)piperazin-1-yl)pyridin-3-yl)-1-isopropyl-N-((6-methyl-2-oxo-4-propyl-1,2-dihydropyridin-3-yl)methyl)-1H-indazole-4-carboxamide], the GI50 in assay [1] amounted to 1.4 µM; in assay [2], 1.2 µM; in assay [3], 1.2 µM; in assay [4] it was 0.57 µM.

Molecule `CCCc1cc(C)[nH]c(=O)c1CNC(=O)c1cc(-c2ccc(N3CCN(C(=O)CCC45CC6CC(CC(C6)C4)C5)CC3)nc2)cc2c1cnn2C(C)C` [AM16-38A, 6-(6-(4-(3-((3r,5r,7r)-adamantan-1-yl)propanoyl)piperazin-1-yl)pyridin-3-yl)-1-isopropyl-N-((6-methyl-2-oxo-4-propyl-1,2-dihydropyridin-3-yl)methyl)-1H-indazole-4-carboxamide] had a GI50 in assay [4] of 2 µM.

On to `Cc1cc(C)c(CNC(=O)c2cc(-c3ccc(N4CCN(C(=O)CC56CC7CC(CC(C7)C5)C6)CC4)nc3)cc3c2cnn3C(C)C)c(=O)[nH]1` [AM16-92A, 6-(6-(4-(2-((1s,3s)-adamantan-1-yl)acetyl)piperazin-1-yl)pyridin-3-yl)-N-((4,6-dimethyl-2-oxo-1,2-dihydropyridin-3-yl)methyl)-1-isopropyl-1H-indazole-4-carboxamide], for which the GI50 in assay [3] is 1 µM; in assay [4] it was 1.1 µM.

`Cc1cc(C)c(CNC(=O)c2cc(-c3ccc(N4CCN(C(=O)CCC56CC7CC(CC(C7)C5)C6)CC4)nc3)cc3c2cnn3C(C)C)c(=O)[nH]1` [AM16-93A, 6-(6-(4-(3-((1r,3s)-adamantan-1-yl)propanoyl)piperazin-1-yl)pyridin-3-yl)-N-((4,6-dimethyl-2-oxo-1,2-dihydropyridin-3-yl)methyl)-1-isopropyl-1H-indazole-4-carboxamide] returned a 50% growth inhibitory concentration (GI50) in assay [4] of 1.5 µM.

Molecule `Cc1cc(C)c(CNC(=O)c2cc(-c3ccc(N4CCN(C(=O)[C@H](C)CCC56CC7CC(CC(C7)C5)C6)CC4)nc3)cc3c2cnn3C(C)C)c(=O)[nH]1` [AM16-97A, 6-(6-(4-((2R)-4-((1r,3S)-adamantan-1-yl)-2-methylbutanoyl)piperazin-1-yl)pyridin-3-yl)-N-((4,6-dimethyl-2-oxo-1,2-dihydropyridin-3-yl)methyl)-1-isopropyl-1H-indazole-4-carboxamide] showed a GI50 in assay [4] of 1.2 µM.

On to `Cc1cc(C)c(CNC(=O)c2cc(-c3ccc(N4CCN(CCNC(=O)C56CC7CC(CC(C7)C5)C6)CC4)nc3)cc3c2cnn3C(C)C)c(=O)[nH]1` [AM16-101A, 6-(6-(4-(2-((1s,3s)-adamantane-1-carboxamido)ethyl)piperazin-1-yl)pyridin-3-yl)-N-((4,6-dimethyl-2-oxo-1,2-dihydropyridin-3-yl)methyl)-1-isopropyl-1H-indazole-4-carboxamide], for which the 50% growth inhibitory concentration (GI50) in assay [1] came out at 1.1 µM; in assay [3], 0.69 µM.

For `Cc1cc(C)c(CNC(=O)c2cc(-c3ccc(N4CCN(CCNCCC56CC7CC(CC(C7)C5)C6)CC4)nc3)cc3c2cnn3C(C)C)c(=O)[nH]1` [AM16-103A, 6-(6-(4-(2-((2-((3r,5r,7r)-adamantan-1-yl)ethyl)amino)ethyl)piperazin-1-yl)pyridin-3-yl)-N-((4,6-dimethyl-2-oxo-1,2-dihydropyridin-3-yl)methyl)-1-isopropyl-1H-indazole-4-carboxamide], the GI50 was 2.1 µM in assay [5], 1.2 µM in assay [1] and 1.4 µM in assay [6].

With `Cc1cc(C)c(CNC(=O)c2cc(-c3ccc(N4CCN(CCNC(=O)[C@H](C)CCC56CC7CC(CC(C7)C5)C6)CC4)nc3)cc3c2cnn3C(C)C)c(=O)[nH]1` [AM16-105A, 6-(6-(4-(2-((2R)-4-((1r,3S)-adamantan-1-yl)-2-methyl-butanamido)ethyl)piperazin-1-yl)pyridin-3-yl)-N-((4,6-dimethyl-2-oxo-1,2-dihydropyridin-3-yl)methyl)-1-isopropyl-1H-indazole-4-carboxamide], the GI50 in assay [3] is 2.3 µM; in assay [4] it was 1.2 µM.

As to `Cc1cc(C)c(CNC(=O)c2cc(-c3ccc(N4CCN(CCCNC(=O)[C@H](C)CCC56CC7CC(CC(C7)C5)C6)CC4)nc3)cc3c2cnn3C(C)C)c(=O)[nH]1` [AM16-106A, 6-(6-(4-(3-((R)-4-((3R,5R,7R)-adamantan-1-yl)-2-methyl-butanamido)propyl)piperazin-1-yl)pyridin-3-yl)-N-((4,6-dimethyl-2-oxo-1,2-dihydro-pyridin-3-yl)methyl)-1-isopropyl-1H-indazole-4-carboxamide], the 50% growth inhibitory concentration (GI50) in assay [4] was found to be 4.3 µM.

On to `Cc1cc(C)c(CNC(=O)c2cc(-c3ccc(N4CCN(CCNC(=O)CC56CC7CC(C)(CC(C)(C7)C5)C6)CC4)nc3)cc3c2cnn3C(C)C)c(=O)[nH]1` [AM29-21A, N-((4,6-dimethyl-2-oxo-1,2-dihydropyridin-3-yl)methyl)-6-(6-(4-(2-(2-((1r,3R,5S,7r)-3,5-dimethyladamantan-1-yl)acetamido)ethyl)piperazin-1-yl)pyridin-3-yl)-1-isopropyl-1H-indazole-4-carboxamide], for which the GI50 in assay [1] was determined as 0.2 µM; in assay [3], 0.28 µM.

Turning to `Cc1cc(C)c(CNC(=O)c2cc(-c3ccc(N4CCN(CCNC(=O)C56CC7CC(C)(CC(C)(C7)C5)C6)CC4)nc3)cc3c2cnn3C(C)C)c(=O)[nH]1` [AM29-22A, N-((4,6-dimethyl-2-oxo-1,2-dihydropyridin-3-yl)methyl)-6-(6-(4-(2-((1R,3S)-3,5-dimethyladamantane-1-carboxamido)ethyl)piperazin-1-yl)pyridin-3-yl)-1-isopropyl-1H-indazole-4-carboxamide], the concentration for 50% growth inhibition (GI50) in assay [1] turned out to be 0.87 µM; in assay [3], 0.69 µM.

Consider `Cc1cc(C)c(CNC(=O)c2cc(-c3ccc(N4CCN(CCC(=O)NCC56CC7CC(CC(C7)C5)C6)CC4)nc3)cc3c2cnn3C(C)C)c(=O)[nH]1` [AM29-33A, 6-(6-(4-(3-((((3r,5r,7r)-adamantan-1-yl)methyl)amino)-3-oxopropyl)piperazin-1-yl)pyridin-3-yl)-N-((4,6-dimethyl-2-oxo-1,2-dihydropyridin-3-yl)methyl)-1-isopropyl-1H-indazole-4-carboxamide], for which the results for the 50% growth inhibitory concentration (GI50) in assay [1] and in assay [3] were 0.71 µM and 0.7 µM, respectively.

`Cc1cc(C)c(CNC(=O)c2cc(-c3ccc(N4CCN(CCNC(=O)CC5C6CC7CC(C6)CC5C7)CC4)nc3)cc3c2cnn3C(C)C)c(=O)[nH]1` (centres unmarked) [AM29-182A, 6-(6-(4-(2-(2-((1r,3r,5r,7r)-adamantan-2-yl)acetamido)ethyl)piperazin-1-yl)pyridin-3-yl)-N-((4,6-dimethyl-2-oxo-1,2-dihydropyridin-3-yl)methyl)-1-isopropyl-1H-indazole-4-carboxamide]: the GI50 came to 3.9 µM in assay [5], 1.8 µM in assay [1] and 2.5 µM in assay [6].

In the case of `Cc1cc(C)c(CNC(=O)c2cc(-c3ccc(N4CCN(CCNC(=O)CC56CC7CC(CC(C7)C5)C6)CC4)nc3)cc3c2cnn3C(C)C)c(=O)[nH]1` [XY019-43, 6-(6-(4-(2-(2-((3r,5r,7r)-adamantan-1-yl)acetamido)ethyl)piperazin-1-yl)pyridin-3-yl)-N-((4,6-dimethyl-2-oxo-1,2-dihydropyridin-3-yl)methyl)-1-isopropyl-1H-indazole-4-carboxamide], the 50% growth inhibitory concentration (GI50) in assay [5] came out at 2.7 µM; in assay [1], 0.54 µM; in assay [6] it was 2.2 µM; in assay [3], 0.35 µM; in assay [4] it was 0.65 µM.

Regarding `Cc1cc(C)c(CNC(=O)c2cc(-c3ccc(N4CCN(CCNC(=O)CCC56CC7CC(CC(C7)C5)C6)CC4)nc3)cc3c2cnn3C(C)C)c(=O)[nH]1` [XY019-44, 6-(6-(4-(2-(3-((3r,5r,7r)-adamantan-1-yl)propanamido)ethyl)piperazin-1-yl)pyridin-3-yl)-N-((4,6-dimethyl-2-oxo-1,2-dihydropyridin-3-yl)methyl)-1-isopropyl-1H-indazole-4-carboxamide], halving of growth in assay [4] (GI50) required 2.2 µM.
